In PubChem BioAssay AID179 (DTP/NCI, 2004):
Active and inactive are the calls of the source.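 Rule for the calls: active = compounds giving half or more protection of infected cells from virus-caused growth loss, again on retest; inactive = the rest.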

Tested on: CEM cells HIV-1 protection, formazan growth assay
Experiment: NCI AIDS Antiviral Assay
Details: for IC50: measured here: growth of uninfected CEM cells
Summary of the method: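 Protection of CEM cells against HIV-1 measured as cell growth via soluble formazan read-out, with five concentrations tested on both infected and uninfected cells; failure to protect may reflect toxicity.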

Row | Structure (SMILES) | EC50 [µM] | IC50 [µM] | outcome
1 | NS(=O)(=O)OCCCCCCCOS(N)(=O)=O | > 871 | 13.5 | –
2 | CCCOC(=O)C1OC12CCCCC2 (stereo not given) | > 200 | > 200 | –
3 | Fc1ccccc1C1CC(C(c2ccccc2)c2ccccc2)=Nc2ccccc2S1 (stereo not given) | > 6.46 | > 6.46 | –
4 | O=C(O)C1[S][Bi]([S]C(C(=O)O)C([S][Bi]2[S]C(C(=O)O)C(C(=O)O)[S]2)C(=O)O)[S]C1C(=O)O (stereo not given) | > 1.32 | > 1.32 | –
5 | COc1ccc2c(c1)nc1n2C(N)=Nc2ccccc2S1 | > 200 | 11.5 | –
6 | COc1cc(Oc2nc3ccccc3nc2C(=O)O)cc(OC)c1OC | > 200 | > 200 | –
7 | Cc1ccc(C)n1N1CCOCC1 | > 200 | 115 | –
8 | CC1(C)OCC2OC3(CO)NP(=O)(N(CCCl)CCCl)OC3C2O1 (stereo not given) | – | – | inactive
9 | O=C1CC2(CCNCC2)C(=O)N1N1CCCCC1 | > 200 | > 200 | –
10 | Cc1cc(N)c(C)c2c1[nH]c1ccc(O)cc12 | > 302 | 28.8 | –
11 | CC1(C)C(=O)C(C)(C)C1O | > 1780 | > 1780 | –
12 | c1csc(-c2nnc(C34CC5CC(CC(C5)C3)C4)o2)c1 | > 200 | 50.1 | –
13 | Oc1c(Br)ccc2cccnc12 | > 20 | 0.794 | –
14 | CN1C=C/C(=C/[N+](=O)[O-])N(C)C1=O | > 200 | > 200 | –
15 | CN(C)c1cc(CN(CCSS(=O)c2ccccc2[N+](=O)[O-])S(=O)c2ccccc2[N+](=O)[O-])nc(CN(CCSS(=O)c2ccccc2[N+](=O)[O-])S(=O)c2ccccc2[N+](=O)[O-])c1 (stereo not given) | > 100 | > 100 | –
16 | Cc1ccc(C2=C(c3ccccc3)C(Br)(c3ccc(C)cc3)C(c3ccccc3)=C2c2ccc(C)cc2)cc1 | > 2.51 | > 2.51 | –
17 | CC(C)C(=O)/C=C/c1ccc(Br)cc1 | – | – | inactive
18 | COc1cc2c(c3c1[C@H](O)[C@H](C)[C@@H](C)O3)C=CC(C)(C)O2 | > 200 | 81.3 | –
19 | CC(C)C1CC2C(=O)N(c3ccccc3)C(=O)C2c2[nH]c3ccccc3c21 (stereo not given) | – | – | inactive
20 | CC(=O)OCCCC(NC(=O)OC(C)(C)C)C(=O)NC(CCCOC(C)=O)C(=O)NC(Cc1ccc([N+](=O)[O-])cc1)C(=O)NCC(=O)OCc1ccccc1 (stereo not given) | > 200 | 16.2 | –

Row | Structure (SMILES) | EC50 [µM] | IC50 [µM] | outcome
21 | O=C(CCN1CCOCC1)c1ccc(Oc2ccc(F)cc2)cc1 | – | – | inactive
22 | S=c1nc(/C=C/c2ccc(Cl)c(Cl)c2)[nH][nH]1 | > 36.3 | > 36.3 | –
23 | CCc1cccc(C(C)CC)c1NC(=O)CC1C(=O)Nc2ccccc2S1(=O)=O (stereo not given) | > 12 | > 12 | –
24 | COC(=O)C(Cc1nc2ccccc2[nH]c1=O)C(NO)C(=O)Nc1c(Cl)cc([N+](=O)[O-])cc1Cl (stereo not given) | > 51.3 | > 51.3 | –
25 | CC(=O)O[C@@H]1CC[C@]2(C)C3CC[C@]4(C)C(C(C)CCc5nc6ccccc6[nH]5)CCC4C3CC[C@@H]2C1 (stereo not given in full) | > 50.1 | 15.5 | –
26 | OC(c1ccsc1)c1cc2ccccc2s1 (stereo not given) | > 200 | 107 | –
27 | O=P1(NC2CCCC2)OCC2(CO1)COP(=O)(NC1CCCC1)OC2 (stereo not given) | > 200 | > 200 | –
28 | COC[C@@]12CCC(OC)C34[C@@H]5C[C@@]6(O)C(OC(=O)c7ccccc7)[C@@H]5[C@](OC(C)=O)(C[C@@H]6OC)[C@@H](C(OC)[C@@H]31)[C@@H]4N(C=O)C2 (stereo not given in full) | – | – | inactive
29 | CCCCCCCCCCCCCCCCCCC1=C(O)C(=O)C=C(OC)C1=O | > 200 | 49 | –
30 | FC(F)(F)c1ccc(C2ON=C(c3ccccc3)N2C23CC4CC(CC(C4)C2)C3)cc1 (stereo not given) | > 200 | > 200 | –
31 | Oc1cccc2ccc(SSc3ccc4cccc(O)c4n3)nc12 | > 200 | 20.4 | –
32 | O=[N+]([O-])c1ccc([As](=O)(O)O)c2ccccc12 | > 200 | > 200 | –
33 | c1ccc(-c2cn3nc(N4CCOCC4)sc3n2)cc1 | > 200 | > 200 | –
34 | NCCCc1nonc1C(=O)O | > 200 | > 200 | –
35 | COc1ccc(/C(C)=N/NC(=S)N(C)C)c(O)c1 | > 200 | 4.79 | –
36 | CCOP(=O)(OCC)/C(C#N)=C/c1nc[nH]c1C | > 200 | > 200 | –
37 | CC/C(Cl)=N\OC(=O)Nc1ccc(OC)c(C)c1 | > 20 | 15.8 | –
38 | CCSC1=N/C(=C\c2ccco2)C(Nc2ccc(C)cc2)=N1 | > 50.1 | > 50.1 | –
39 | Cc1c(O)c(C)c2c(C)cn(C(=O)C(C)(C)C)c2c1C | > 200 | 30.2 | –
40 | Cc1cc(C)nc(NS(=O)(=O)c2ccc(Nc3c4ccc(Cl)cc4nc4c(C(=O)Nc5ccc(S(=O)(=O)N=C(N)N)cc5)cccc34)cc2)n1 | > 49 | > 49 | –
